Test results as given in patent US20180312930A1, “METHOD FOR ANALYZING A SAMPLE TO DETECT THE PRESENCE OF SULPHITE-RESISTANT YEASTS OF THE BRETTANOMYCES BRUXELLENSIS SPECIES AND KIT FOR IMPLEMENTING SAME” (UNIVERSITE DE BORDEAUX, priority 2015, published 2018).

How the values were obtained:
Test in all cases: capacity of strains to grow in the presence of sulphur dioxide
Assay type in all cases: cell-based
[1] = system: Brettanomyces bruxellensis strains of the beer triploid group; settings: 14 days of culture, 8 strains tested
Description: (§1) The 33 strains of Brettanomyces bruxellensis are cultivated in a medium in the absence or the presence of different concentrations of sulphur dioxide SO2 in the culture medium (0 mg/L, 0.2 mg/L, 0.4 mg/L and 0.6 mg/L).
(§2) After 14 days of culture, the capacity of the strains to grow in the different media is evaluated.

[2] = system: Brettanomyces bruxellensis strains of the oenological diploid group; settings: 14 days of culture, 17 strains tested
Description: as §1, §2

[3] = system: Brettanomyces bruxellensis strains of the oenological triploid group; settings: 14 days of culture, 8 strains tested
Description: as §1, §2

[4] = 0.2 mg/L active SO2 in the culture medium
[5] = 0.4 mg/L active SO2 in the culture medium
[6] = 0.6 mg/L active SO2 in the culture medium

O=S=O [sulphur dioxide]
Number of strains with the capacity to grow [1, 4]: 3
Number of strains with the capacity to grow [1, 5]: 0
Number of strains with the capacity to grow [1, 6]: 0
Number of strains with the capacity to grow [2, 4]: 6
Number of strains with the capacity to grow [2, 5]: 1
Number of strains with the capacity to grow [2, 6]: 0
Number of strains with the capacity to grow [3, 4]: 8
Number of strains with the capacity to grow [3, 5]: 8
Number of strains with the capacity to grow [3, 6]: 4
